Some test systems named below: BT-549; SR; M14; NCI-H460; Malme-3M; MCF7; K562; HOP-92; UO-31; EKVX; A549; SW-620; HT-29; MDA-MB-231; A498; OVCAR-4; SNB-75; HCC 2998; SK-OV-3; SK-MEL-2.
What all share (test): NCI anticancer screen, dose series, 48 h

The structures appear in SMILES notation.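 Cultured in 96-well plates, cells were exposed to test compound for 48 hours across five concentrations. At the GI50, growth is halved.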 The source made the active and inactive calls. No stated cut-off is given here; in the data, active = GI50 up to about 1.1 µM and inactive = higher. Starred links: 1 amine or outer side, 2 acyl side, 3 side chain; linkers in the order of their positions; H or OH if unused. Positions of bridges follow the written chain, without caps; N, C: chain ends. Non-standard residues stand in square brackets, D forms with d. Residues, ends and D or L forms follow the SMILES beside them. Chains are numbered I, II in the order given. ξ: configuration not given here. X42 = N=C(N)NCCC[C@H](NC(=N)CCCCCCC(=N)N[C@@H](CCCNC(=N)N)C(=O)[*:2])C(=O)[*:1]; Oic(3aξ,7aξ) = O=C(O)[C@@H]1CC2CCCCC2N1; Igl = N[C@H](C(=O)O)C1Cc2ccccc2C1; Hyp = O=C(O)[C@@H]1C[C@@H](O)CN1

`Cc1ccc(/S(Cc2ccccc2)=N\S(=O)(=O)c2ccc(C)cc2)cc1` (stereo not drawn): the GI50 with BT-549, in the experiment with SR, with M14, with NCI-H460, in the experiment on Malme-3M and with MCF7 was > 100 µM (inactive) in each case. For the same molecule, the GI50 in the experiment on K562, with HOP-92, in the experiment with UO-31, with EKVX, with A549 and in the experiment on SW-620 was > 100 µM (inactive) in each case. The GI50 in the experiment on HT-29 is > 100 µM (inactive).
As to `O=[N+]([O-])c1ccc2c(c1)C1=C(CO2)Cc2ccccc2O1`, the GI50 in the experiment on MDA-MB-231 is 27.4 µM (inactive); in the experiment on A498 it was 63.8 µM (inactive); with OVCAR-4, 36.9 µM (inactive); with BT-549, 28.8 µM (inactive); in the experiment with SR it was 18.9 µM (inactive); with M14, 20.6 µM (inactive). The GI50 with Malme-3M is 26.4 µM (inactive); with SNB-75, > 100 µM (inactive); with HCC 2998 it was 19.7 µM (inactive); with SK-OV-3, 74.5 µM (inactive); with K562, 51.4 µM (inactive); with HOP-92 it was 23.9 µM (inactive). Further, the GI50 in the experiment on UO-31 was 13.7 µM (inactive); with EKVX, 27.2 µM (inactive); in the experiment on SK-MEL-2, 37.9 µM (inactive); in the experiment with A549, 42.4 µM (inactive); in the experiment on SW-620 it was 21.3 µM (inactive); with HT-29 it was 26.2 µM (inactive).
With `Cc1cc(C)c(C2CC(O)C(CO)O2)cc1C` (stereo not drawn), the GI50 in the experiment on MDA-MB-231, in the experiment on OVCAR-4, in the experiment with BT-549, with SR, with M14 and in the experiment with NCI-H460 was > 100 µM (inactive) in each case. The GI50 with Malme-3M, in the experiment on SNB-75, with HCC 2998, in the experiment on SK-OV-3, in the experiment with K562 and in the experiment on UO-31 was > 100 µM (inactive) throughout. The GI50 in the experiment on EKVX, in the experiment with SK-MEL-2, in the experiment on A549, with SW-620 and in the experiment on HT-29 was > 100 µM (inactive) in each case.
As for `CO[C@@]12C[C@@H](CNC(=O)c3cc(Br)c[nH]3)O[C@@H]1NC(=O)N2`, the GI50 in the experiment on MDA-MB-231, with A498, in the experiment on OVCAR-4, in the experiment with BT-549, with M14 and in the experiment on NCI-H460 was > 100 µM (inactive) throughout. The GI50 in the experiment on Malme-3M, with MCF7, with SNB-75, with SK-OV-3, in the experiment on UO-31 and in the experiment with EKVX was > 100 µM (inactive) each time. The GI50 in the experiment on SK-MEL-2, with A549, in the experiment on SW-620 and in the experiment on HT-29 was > 100 µM (inactive) throughout.
Turning to `O=c1[nH]c(=O)n(COCc2ccccc2)c2ccccc12`, the GI50 with MDA-MB-231 is 49.2 µM (inactive); with A498, > 100 µM (inactive); in the experiment on OVCAR-4, 44.3 µM (inactive); with SR, 37 µM (inactive); in the experiment with M14, > 100 µM (inactive); with NCI-H460, 40.9 µM (inactive). Moreover, the GI50 was 38 µM (inactive) with MCF7; 13.1 µM (inactive) in the experiment on SNB-75; 89.9 µM (inactive) with SK-OV-3; 45.6 µM (inactive) in the experiment on K562; 77.6 µM (inactive) in the experiment on HOP-92; 29.1 µM (inactive) in the experiment with UO-31. Also, the GI50 with EKVX was 22.5 µM (inactive); in the experiment with SK-MEL-2, > 100 µM (inactive); with A549, 92.7 µM (inactive); with SW-620 it was > 100 µM (inactive); with HT-29, 31.9 µM (inactive).
Turning to `S=C(Nc1ccccc1)c1ccc(CN2CCCCC2)s1`, the GI50 with A498 is 18.4 µM (inactive); with OVCAR-4 it was 35.6 µM (inactive); in the experiment with BT-549, 21.4 µM (inactive); with SR it was 15.6 µM (inactive); with M14, 16 µM (inactive); in the experiment on NCI-H460, 21.6 µM (inactive). Moreover, the GI50 with Malme-3M was 21 µM (inactive); with MCF7 it was 18 µM (inactive); with HCC 2998 it was 21.8 µM (inactive); with SK-OV-3, 19.5 µM (inactive); with K562 it was 13.8 µM (inactive); in the experiment on UO-31 it was 16.2 µM (inactive). Further, the GI50 with EKVX was 41.8 µM (inactive); in the experiment on SK-MEL-2 it was 20.5 µM (inactive); in the experiment on A549, 29.6 µM (inactive); with SW-620 it was 16.4 µM (inactive); with HT-29, 11.3 µM (inactive).
`CCCSc1ccc2[nH]c(N3C(=O)/C(=C/c4ccccc4)N=C3c3ccccc3)cc2c1`: the GI50 in the experiment with A498 was 27 µM (inactive); in the experiment with OVCAR-4, 30 µM (inactive); in the experiment on BT-549, 19.9 µM (inactive); with SR, 10.5 µM (inactive); in the experiment with M14, 16.6 µM (inactive); in the experiment on Malme-3M, 24.2 µM (inactive). Also, the GI50 is 24.4 µM (inactive) in the experiment on MCF7; 40.6 µM (inactive) in the experiment with SNB-75; 15.1 µM (inactive) in the experiment with HCC 2998; 14.2 µM (inactive) in the experiment with K562; > 50 µM (inactive) with HOP-92; 42.9 µM (inactive) in the experiment on UO-31. In addition, the GI50 in the experiment with EKVX was 19.1 µM (inactive); with SK-MEL-2, 0.391 µM (active); in the experiment on A549, 19.5 µM (inactive); in the experiment with SW-620 it was 18.7 µM (inactive); in the experiment on HT-29, 16.7 µM (inactive).
On to `O=C(O)C1C(=O)Oc2c(cccc2[N+](=O)[O-])C1O` (stereo not drawn), for which the GI50 with MDA-MB-231, in the experiment on A498, in the experiment on OVCAR-4, in the experiment on BT-549, in the experiment on SR and in the experiment with M14 was > 100 µM (inactive) in each case. The GI50 in the experiment with NCI-H460, in the experiment with Malme-3M, in the experiment on SNB-75, with HCC 2998, with K562 and in the experiment with HOP-92 was > 100 µM (inactive) in each case. The GI50 in the experiment on EKVX, in the experiment with SK-MEL-2, in the experiment with A549, in the experiment on SW-620 and with HT-29 was > 100 µM (inactive) in each case.
As to `Cc1ccccc1NC(=O)/C(C#N)=N\Nc1[nH]cnc1C(N)=O`, the GI50 in the experiment on MDA-MB-231 was 7.46 µM (inactive); in the experiment with OVCAR-4, 34.1 µM (inactive); in the experiment with BT-549 it was > 100 µM (inactive); with M14 it was 2.66 µM (inactive); in the experiment on NCI-H460 it was 9.33 µM (inactive); in the experiment on Malme-3M it was 4.62 µM (inactive). For the same molecule, the GI50 with MCF7 was 21.6 µM (inactive); in the experiment with SNB-75, 54.5 µM (inactive); in the experiment on HCC 2998, 2.92 µM (inactive); in the experiment with SK-OV-3, 1.59 µM (inactive); in the experiment on K562 it was 1.89 µM (inactive); with UO-31 it was 1.62 µM (inactive). Also, the GI50 was 66.8 µM (inactive) in the experiment with EKVX; 1.18 µM (inactive) with SK-MEL-2; > 100 µM (inactive) in the experiment on A549; 2.89 µM (inactive) with SW-620; 38.6 µM (inactive) in the experiment with HT-29.
For the molecule `CC(O)C(NC(=O)C(CS)NC(=O)C(CO)NC(=O)C(CCCCN)NC(=O)C(Cc1c[nH]c2ccccc12)NC(=O)C(Cc1ccc(O)cc1)NC(=O)C(CS)NC(=O)C(N)Cc1ccccc1)C(N)=O` (stereo not drawn), the GI50 with MDA-MB-231 was > 25 µM (inactive); in the experiment with A498, > 25 µM (inactive); in the experiment on OVCAR-4 it was 8.53 µM (inactive); in the experiment with SR, > 25 µM (inactive); in the experiment on M14, > 25 µM (inactive); with NCI-H460, 22.2 µM (inactive). Also, the GI50 with Malme-3M was > 25 µM (inactive); in the experiment on MCF7, > 25 µM (inactive); with SNB-75 it was 25 µM (inactive); in the experiment with HCC 2998 it was > 25 µM (inactive); in the experiment with SK-OV-3, > 25 µM (inactive); in the experiment on K562 it was > 25 µM (inactive). Moreover, the GI50 with UO-31, in the experiment on EKVX, in the experiment with SK-MEL-2, with A549, with SW-620 and in the experiment on HT-29 was > 25 µM (inactive) throughout.
With `N=C(N)NCCC[C@H](NC(=O)[C@@H]1CC2CCCCC2N1C(=O)[C@@H](NC(=O)[C@H](CO)NC(=O)[C@@H](NC(=O)CNC(=O)[C@@H]1CCCN1C(=O)[C@H](CCCNC(=N)N)NC(=O)[C@H](CCCNC(=N)N)NC(=N)CCCCCCC(=N)N[C@@H](CCCNC(=N)N)C(=O)N[C@@H](CCCNC(=N)N)C(=O)N1CCC[C@H]1C(=O)N1C[C@H](O)C[C@H]1C(=O)NCC(=O)N[C@H](C(=O)N[C@@H](CO)C(=O)N[C@H](C(=O)N1C2CCCCC2C[C@H]1C(=O)N[C@@H](CCCNC(=N)N)C(=O)O)C1Cc2ccccc2C1)C1Cc2ccccc2C1)C1Cc2ccccc2C1)C1Cc2ccccc2C1)C(=O)O` (stereo partly drawn) (I: RP[Hyp]G[Igl]S[Igl][Oic(3aξ,7aξ)]R-OH / II: RPG[Igl]S[Igl][Oic(3aξ,7aξ)]R-OH; linker I:N-II:N via X42), the GI50 in the experiment on MDA-MB-231 is 1.69 µM (inactive); in the experiment on OVCAR-4, 2.73 µM (inactive); in the experiment with SR it was 0.169 µM (active); in the experiment with M14, 3.18 µM (inactive); in the experiment with NCI-H460, 1.91 µM (inactive); in the experiment on Malme-3M it was 2.31 µM (inactive). Further, the GI50 with MCF7 is 1.99 µM (inactive); in the experiment with SK-OV-3, 1.83 µM (inactive); in the experiment with K562, 0.993 µM (active); with HOP-92, 2.21 µM (inactive); with UO-31, 5.43 µM (inactive); with EKVX, 2.03 µM (inactive). Also, the GI50 in the experiment with SK-MEL-2 was 2.33 µM (inactive); in the experiment with A549 it was 3.08 µM (inactive); with SW-620, 2.28 µM (inactive); in the experiment on HT-29 it was 0.138 µM (active).

(Values after ChEMBL document CHEMBL1201862, “PubChem BioAssay data set” (2004).)
